# Data from patent US11891386B2, “Indole compounds and their use” (ARIAGEN, INC., priority 2017, dated 2024).
# Read-outs that look alike come from different tables or passages of the source.
# How the values were obtained:
# [1] = test system: EMT-6 syngeneic mouse tumor model (breast cancer); assay: Anti-tumor activity, EMT-6 syngeneic mouse tumor model; assay type: in vivo; settings: for anti-tumor potency, in words / tumor growth and survival, in words / complete tumor regression (CR): EMT-6 model; for anti-tumor potency, in words / tumor growth and survival, in words: 40 mpk
# Protocol: (§1) This example describes in vivo studies that evaluated the anti-cancer efficacy of the disclosed indole compounds in syngeneic mouse tumor models. Mice implanted subcutaneously with four types of cancer cells were treated with test indole compounds or vehicle controls as described below.
# (§2) A monolayer culture of tumor cells was maintained in vitro in DMEM or RPMI1640 medium supplemented with 10% fetal bovine serum at 37° C. in an atmosphere of 5% CO2. Cells in exponential growth phase were harvested and quantitated by cell counter before tumor inoculation. The cell lines used are described in the table below.
# (§3) Four subcutaneous syngeneic mouse tumor models were generated by innoculating female BALB/C or C57BL/6 mice with cancer cells at their right lower or front flank as detailed in the table below:
# (§4) Each mouse was inoculated subcutaneously with tumor cells in 0.1 mL of PBS. Treatments were started when the mean tumor size reached approximately 80-120 mm^3 (around 100 mm^3). The administration of the indole compounds and the animal number in each study group are shown in the study design. The date of tumor cell inoculation was denoted as day 0.
# (§5) The indole compounds were dissolved in DMSO at the final concentration of 26.7 mg/ml and stored at room temperature.
# (§6) Randomization of animals was started when the mean tumor size reached approximately 90 mm^3 to form the mouse study groups. The randomization was performed based on “Matched distribution” method using the multi-task method (StudyDirector™ software, version 3.1.399.19)/randomized block design. The mouse groups (ten in each group) were treated with vehicle (DMSO) or the indole compounds at a dose of 40 mg/kg by i.p. injection, QD for 28 days or longer.
# (§7) After tumor cell inoculation, the mice were checked daily for morbidity and mortality. During routine monitoring, the mice were checked for tumor growth and any effects of the treatment on behavior such as mobility, food and water consumption, body weight gain/loss (body weights were measured twice per week after randomization), eye/hair matting, and any other abnormalities. Mortality and observed clinical signs were recorded for individual mice in detail.
# (§8) Tumor volumes were measured twice per week in two dimensions using a caliper, and the volume was expressed in mm^3 using the formula: V=(L×W×W)/2, where V is tumor volume, L is tumor length (the longest tumor dimension) and W is tumor width (the longest tumor dimension perpendicular to L). Dosing as well as tumor and body weight measurements was conducted in a Laminar Flow Cabinet. The body weights and tumor volumes were measured by using StudyDirector™ software (version 3.1.399.19). Dosing Holiday
# Tumor growth inhibition percentage (TGI %) is an indicator for antitumor activity of a drug compound, and expressed as: TGI (%)=100×(1−T/C), where T and C are the mean tumor volume (or weight) of the treated and control groups, respectively, on a given day. Statistical analysis of the difference in mean tumor volume (MTV) among the groups was conducted using the data collected on the day when the MTV of the vehicle group reached the humane endpoints, so that TGI could be derived for all or most mice enrolled in the study.
# In Studies 1 and 3, the anti-tumor activity of ARI-001 in parallel with ARI-002 at 160 mg/kg (mpk), and the anti-tumor activity of ARI-087 in parallel with ARI-002 at 40 mpk were assessed using the EMT-6, Pan02, A20, and LL/2 models. Because EMT-6 provides a fast-growing model that enables relatively quick differentiation of performance between compounds, this syngeneic mouse tumor model was chosen for the other studies. In Study 2, the anti-tumor activity of ARI-002 was compared with that of ARI-004 at 10, 40, and 80 mpk. In Study 4, the anti-tumor activity of ARI-087 was compared with that of ARI-140. In Study 5, the anti-tumor activity of ARI-087 was evaluated in parallel with ARI-143 and ARI-149 at 40 mpk. […]
# [2] = test system: CYP1A1 in mouse Hepal-6 cells; assay: EROD assay (7-ethoxy-resorufin-O-deethylase), mouse Hepa1-6 cells; assay type: cell-based; settings: for EC50: EROD assay, 20 hours treatment
# Protocol: (§9) CYP1A1 induction is under the control of the AhR signaling pathway. This Example describes an in vitro assay (7-ethoxy-resorufin-O-deethylase (EROD) assay) that evaluated the AhR modulating activities of the indole compounds described herein. In this assay, the indole compounds were incubated with human HepG2 cells or mouse Hepal-6 cells. The activity of CYP1A1 in the cells was measured by the conversion of substrate 7-ethoxyresorufin, with the readout being a fluorescence signal associated with the conversion product. The EC50 values of the indole compounds as well as the maximum […] induced by them in the assay were determined.
# (§10) Human HepG2 cells were obtained from Sigma Aldrich (Catalog 85011430-1VL). Mouse Hepal-6 cells also were obtained from Sigma Aldrich (Catalog 92110305-1V).
# (§11) Human HepG2 and Mouse Hepal-6 cells were grown to 60-80% confluency in tissue culture flasks, lifted with non-enzymatic cell dissociation solution (cell stripper), seeded in a 384-well plate at 5,000 cells per well, treated with the test compounds, and incubated for 20 hours overnight at 37° C. The treatment medium was removed and a solution of substrate 7-ethoxyresorufin (ETX) was added to initiate the reaction. The plate was incubated at 37° C. for 30 minutes. The reaction was subsequently terminated by adding tempered methanol. Fluorescent emission was measured at 590 nm with excitation at 530 nm in a FLEXSTATION III instrument (Molecular Devices).
# [3] = test system: LL/2 syngeneic mouse tumor model (lung cancer); assay: Anti-tumor activity, LL/2 syngeneic mouse tumor model; assay type: in vivo; settings: D28
# Protocol: as §1, §2, §3, §4, §5, §6, §7, §8
# (§12) Tumor growth inhibition percentage (TGI %) is an indicator for antitumor activity of a drug compound, and expressed as: TGI (%)=100×(1−T/C), where T and C are the mean tumor volume (or weight) of the treated and control groups, respectively, on a given day. […]
# (§13) In Studies 1 and 3, the anti-tumor activity of ARI-001 in parallel with ARI-002 at 160 mg/kg (mpk), and the anti-tumor activity of ARI-087 in parallel with ARI-002 at 40 mpk were assessed using the EMT-6, Pan02, A20, and LL/2 models. […] In Study 5, the anti-tumor activity of ARI-087 was evaluated in parallel with ARI-143 and ARI-149 at 40 mpk. […]
# [4] = test system: Pan02 syngeneic mouse tumor model (pancreatic cancer); assay: Anti-tumor activity, Pan02 syngeneic mouse tumor model; assay type: in vivo
# Protocol: as §1, §2, §3, §4, §5
# Randomization of animals was started when the mean tumor size reached approximately 90 mm^3 to form the mouse study groups. […]
# as §7
# as §8, with “Dosing as well as tumor and body weight measurements was conducted in a Laminar Flow Cabinet.” left out, “Dosing Holiday” left out
# as §12
# In Studies 1 and 3, the anti-tumor activity of ARI-001 in parallel with ARI-002 at 160 mg/kg (mpk), and the anti-tumor activity of ARI-087 in parallel with ARI-002 at 40 mpk were assessed using the EMT-6, Pan02, A20, and LL/2 models. […]
# [5] = In vivo pharmacokinetic study in Sprague-Dawley rats; settings: rat; for bioavailability: Sprague-Dawley, plasma, po, 10 mg/kg; for % of Hepatisc Blood Flow: IV (2 mg/kg); for IV PK profile compared to ARI-001, ARI-002, and ARI-004, in words / IV AUCinf, times higher than ARI-002 / plasma clearance, % of that of ARI-002: IV
# Protocol: This example describes pharmacokinetic (PK) studies of the various indole compounds described herein in rats, a rodent species widely used for pre-clinical toxicology evaluation. In the present studies, the test compounds were given to groups of Sprague-Dawley rats (N=3 in each group) intravenously (IV) at 2 mg/kg or orally (PO) at 10 mg/kg. IV doses were formulated in DMSO, while PO doses were formulated in a 50/50 mixture of PEG400 and Tween 80. Blood samples were collected at pre-dose and over a period of 24 hours post-dose. Plasma concentrations of the indole compounds were determined by HPLC.
# [6] = test system: A20 syngeneic mouse tumor model (B cell lymphoma); assay: Anti-tumor activity, A20 syngeneic mouse tumor model; assay type: in vivo
# Protocol: as §1, §2, §3, §4, §5, §6, §7, §8, §12, §13
# [7] = test system: CYP1A1 in human HepG2 cells; assay: EROD assay (7-ethoxy-resorufin-O-deethylase), human HepG2 cells; assay type: cell-based; parameters: key to activity group based on EC50 values, in the order of increasing activity: (1) active; (2) more active; (3) most active; settings: for EC50: EROD assay, 20 hours treatment; for EC50 / activity in the human EROD assay compared to ARI-001 / ARI-002, in words: human HepG2 cells; for activity group based on EC50 values, in the order of increasing activity: oxadiazole derivatives of ITE
# Protocol: as §9, §10, §11
# [8] = PO (10 mg/kg) vs IV (2 mg/kg), read-out: F % (bioavailability)
# [9] = Mus musculus, EMT6, ip, 672 h, Study 4, EMT-6, 40 mpk i.p. QD, D28, read-out: TGI (tumor growth inhibition)
# [10] = Mus musculus, EMT6, ip, 720 h, Study 5, EMT-6, 40 mpk i.p. QD, D30, read-out: TGI (tumor growth inhibition)
Structure (SMILES),EC50 [2] [nM],"bioavailability [5, 8] [%]",% of Hepatisc Blood Flow [5] [%],EC50 [7] [nM],"activity in the mouse EROD assay, in words [2]","activity in the human EROD assay compared to ARI-001 / ARI-002, in words [7]","activity group based on EC50 values, in the order of increasing activity ([7]; human EROD assay)","anti-tumor potency, in words [1]","inhibition in vivo at 40 mg/kg [1, 10] [%]",further results
"COC(=O)c1csc(C(=O)c2c[nH]c3ccccc23)n1 [ARI-001, ITE]",64,0.4,289,28.9,–,–,–,–,–,"inhibition in vivo at 160 mg/kg ([1]; Mus musculus, EMT6, 648 h, Study 1, EMT-6, 160 mpk, D27, read-out: TGI (tumor growth inhibition)): 53%; TGI (tumor growth inhibition) ([3]; Study 1, LL/2, 160 mpk): 65.1% D28; TGI (tumor growth inhibition) ([4]; Study 1, Pan02, 160 mpk, D28): 74.2% D28; TGI (tumor growth inhibition) ([6]; Study 1, A20, 160 mpk, D26): 54.5% D26"
CNC(=O)c1csc(C(=O)c2c[nH]c3ccccc23)n1 [ARI-004],–,33.6,189,–,less active,less active,–,–,–,"inhibition in vivo at 10 mg/kg ([1]; Mus musculus, EMT6, 648 h, Study 2, EMT-6, 10 mpk, D27, read-out: TGI (tumor growth inhibition)): -38.2%; inhibition in vivo at 40 mg/kg ([1]; Mus musculus, EMT6, 648 h, Study 2, EMT-6, 40 mpk, D27, read-out: TGI (tumor growth inhibition)): 0.3%; inhibition in vivo at 80 mg/kg ([1]; Mus musculus, EMT6, 648 h, Study 2, EMT-6, 80 mpk, D27, read-out: TGI (tumor growth inhibition)): 15.8%"
"CCC(=O)c1csc(C(=O)c2c[nH]c3ccc(Cl)cc23)n1 [ARI-067, 1-(2-(5-chloro-1H-indole-3-carbonyl)thiazol-4-yl)propan-1-one]",–,3.5,350,–,less active,less active,–,–,–,–
"Nc1nnc(-c2csc(C(=O)c3c[nH]c4ccccc34)n2)o1 [ARI-083, (4-(5-amino-1,3,4-oxadiazol-2-yl)thiazol-2-yl)(1H-indol-3-yl)methanone]",–,1,45,–,–,significantly more (about 4 to 900 times more) active than ARI-001,more active,–,–,"inhibition in vivo at 40 mg/kg ([1]; Mus musculus, EMT6, ip, 648 h, Study 3, EMT-6, 40 mpk i.p. QD, D27, read-out: TGI (tumor growth inhibition)): 21.2%; TGI (tumor growth inhibition) ([3]; Study 3, LL/2, 40 mpk i.p. QD): 24.0% D28; TGI (tumor growth inhibition) ([4]; Study 3, Pan02, 40 mpk i.p. QD, D60): 2.7% D60; IV PK profile compared to ARI-001, ARI-002, and ARI-004, in words [5]: improved IV PK profiles; TGI (tumor growth inhibition) ([6]; Study 3, A20, 40 mpk i.p. QD, D28): 22% D28"
"Nc1nnc(-c2csc(C(=O)c3c[nH]c4c(F)cccc34)n2)o1 [ARI-118, (4-(5-amino-1,3,4-oxadiazol-2-yl)thiazol-2-yl)(7-fluoro-1H-indol-3-yl)methanone]",–,0.2,17,–,most active among the tested oxadiazole compounds,significantly more (about 4 to 900 times more) active than ARI-001,most active,superior anti-tumor activity than ARI-087,–,"tumor growth and survival, in words [1]: delay tumor growth and prolong survival; complete tumor regression (CR) ([1]; Study 4, by day 46): 1 out of 10; inhibition in vivo at 40 mg/kg [1, 9]: 54.5%; IV PK profile compared to ARI-001, ARI-002, and ARI-004, in words [5]: improved IV PK profiles; times more active than ARI-001 ([7]; human EROD assay): about 930 times; times more active than ARI-002 ([7]; human EROD assay): about 13 times"
"CCC(=O)c1csc(C(=O)c2c[nH]c3c(F)cccc23)n1 [ARI-140, 1-(2-(7-fluoro-1H-indole-3-carbonyl)thiazol-4-yl)propan-1-one]",19.5,–,–,0.7,less active than ARI-002,–,–,–,–,"inhibition in vivo at 40 mg/kg [1, 9]: 30.6%"
"CCC(=O)c1csc(C(=O)c2c[nH]c3cc(F)ccc23)n1 [ARI-143, 1-(2-(6-fluoro-1H-indole-3-carbonyl)thiazol-4-yl)propan-1-one]",2.3,19.3,19,4.2,–,–,–,most potent ketone derivative,65.9,"tumor growth and survival, in words [1]: delay tumor growth and prolong survival; complete tumor regression (CR) ([1]; Study 5, by day 51): 2 out of 10; IV AUCinf, times higher than ARI-002 [5]: 1.5 times; plasma clearance, % of that of ARI-002 [5]: 74%; PO AUCinf, times higher than that of ARI-002 ([5]; PO): 2.6 times; absolute oral bioavailability, times higher than ARI-002 ([5]; PO): 1.8 times"
"NCc1nnc(-c2csc(C(=O)c3c[nH]c4c(F)cccc34)n2)o1 [ARI-145, (4-(5-(aminomethyl)-1,3,4-oxadiazol-2-yl)thiazol-2-yl)(7-fluoro-1H-indol-3-yl)methanone]",–,–,–,–,most active among the tested oxadiazole compounds,significantly more (about 4 to 900 times more) active than ARI-001,more active,less anti-tumor potency than ARI-087,10.5,–
"CCC(=O)c1csc(C(=O)c2c[nH]c3cc(F)c(F)cc23)n1 [ARI-149, 1-(2-(5,6-difluoro-1H-indole-3-carbonyl)thiazol-4-yl)propan-1-one]",0.6,6.8,13,19.2,–,–,–,–,42.7,"bioavailability ([5]; PO, read-out: absolute oral bioavailability, % of ARI-002): 62%; IV AUCinf, times higher than ARI-002 [5]: 2.3 times; plasma clearance, % of that of ARI-002 [5]: 50%; PO AUCinf, times higher than that of ARI-002 ([5]; PO): about 1.4 times"
